This note sets out measurements from patent US5366982A (priority 1990, dated 1994).

Where two headings read alike, the source gives them in different places.

In one experiment the target is leukotriene B4 receptors (Cavia porcellus, UniProt H0VYV8). Briefly: biochemical. Format: binding, guinea-pig. Particulars: Table XIX; guinea-pig spleen membranes, tritium-labelled LTB4; read-out: IC50 Binding (Cheng).
Experiment [1] has as its system guinea-pig pulmonary parenchyma. Briefly: L. Parenchyma: guinea-pig pulmonary parenchyma contraction antagonism induced by LTB4 (Sirois). Type of experiment: cell-based. Particulars: Table XIX, guinea-pig pulmonary parenchyma contraction induced by LTB4, read-out: IC50 L. Parenchyma. As to the method:
Further, compounds of this invention are shown to be leukotriene B4 antagonists in the technique of guinea-pig pulmonary parenchyma contraction antagonism induced by LTB4 described by P. Sirois et al., Pharmacology, 31, 225-236 (1985). In this technique, products are active at concentrations of between about 1 to about 10,000 nM.

Sequence of leukotriene B4 receptors (H0VYV8 1-348): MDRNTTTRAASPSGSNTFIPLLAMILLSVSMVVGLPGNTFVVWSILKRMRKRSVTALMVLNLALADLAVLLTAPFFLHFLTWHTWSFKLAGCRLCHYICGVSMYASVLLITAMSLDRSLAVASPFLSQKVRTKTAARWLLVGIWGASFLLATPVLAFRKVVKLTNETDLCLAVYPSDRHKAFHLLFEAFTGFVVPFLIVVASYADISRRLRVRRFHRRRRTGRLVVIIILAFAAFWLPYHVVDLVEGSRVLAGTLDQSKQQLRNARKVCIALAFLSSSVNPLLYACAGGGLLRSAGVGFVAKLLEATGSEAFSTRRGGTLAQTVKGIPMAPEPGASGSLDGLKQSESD

“6-[(6-cyclopropyl-5-phenyl-2-pyridyl)oxy]-2,2-dimethylhexanoic acid”: the values for the IC50 (at leukotriene B4 receptors; in experiment [1]) were 4 nM and 200 nM, respectively.
Regarding `CC(C)(CCCCOc1cc(-c2cccc(Cl)c2)cc(-c2ccccc2)n1)C(=O)O` [2,2-dimethyl-6-{[4-(3-chlorophenyl)-6-phenyl-2-pyridyl]oxy}hexanoic acid], the IC50 (as a rule, the concentration that gives 50% inhibition) on leukotriene B4 receptors stood at 13 nM; in experiment [1] (Cavia porcellus), 1000 nM.
For `COc1cccc(-c2cc(OCCCCC(C)(C)C(=O)O)nc(-c3ccccc3)c2)c1` [2,2-dimethyl-6-{[4-(3-methoxyphenyl)-6-phenyl-2-pyridyl]oxy}hexanoic acid], the IC50 on leukotriene B4 receptors worked out at 2 nM; in experiment [1] (Cavia porcellus), 30 nM.
The corresponding values for `CC(C)(CCCCOc1cc(-c2ccc(N)cc2)cc(-c2ccccc2)n1)C(=O)O` [2,2-dimethyl-6-{[4-(4-aminophenyl)-6-phenyl-2-pyridyl]oxy}hexanoic acid] are 10 nM and 1 nM.
For `CC(C)(CCCCOc1cc(-c2ccc(F)cc2)cc(-c2ccccc2)n1)C(=O)O` [2,2-dimethyl-6-{[4-(4-fluorophenyl)-6-phenyl-2-pyridyl]oxy}hexanoic acid], in that order: 7 nM and 300 nM.
As to `COc1ccc(-c2cc(OCCCCC(C)(C)C(=O)O)nc(-c3ccccc3)c2)cc1` [2,2-dimethyl-6-{[4-(4-methoxyphenyl)-6-phenyl-2-pyridyl]oxy}hexanoic acid], the IC50 at leukotriene B4 receptors is 50 nM; in experiment [1] (Cavia porcellus), 170 nM.
With `CC(C)(CCCCOc1cc(-c2ccccc2)cc(-c2cccs2)n1)C(=O)O` [2,2-dimethyl-6-{[4-phenyl-6-(2-thienyl)-2-pyridyl]oxy}hexanoic acid], the IC50 on leukotriene B4 receptors was 15 nM; in experiment [1] (Cavia porcellus), 1000 nM.
Consider `CC(C)(CCCCOc1cc(-c2ccccc2)cc(-c2ccsc2)n1)C(=O)O` [2,2-dimethyl-6-{[4-phenyl-6-(3-thienyl)-2-pyridyl]oxy}hexanoic acid], for which the IC50 at leukotriene B4 receptors stood at 5 nM; in experiment [1] (Cavia porcellus) it was 100 nM.
In the case of `CC(C)(CCCCOc1cc(-c2ccccc2)cc(-c2ccccc2F)n1)C(=O)O` [2,2-dimethyl-6-{[6-(2-fluorophenyl)-4-phenyl-2-pyridyl]oxy}hexanoic acid], the results for the IC50 (at leukotriene B4 receptors; in experiment [1] (Cavia porcellus)) were 5 nM and 80 nM, respectively.
`CCC(C)(CCCCOc1cc(-c2ccccc2)cc(-c2ccccc2)n1)C(=O)O` (centres unmarked) [2-ethyl-2-methyl-6-[(4,6-diphenyl-2-pyridyl)oxy]hexanoic acid]: the IC50 is 17 nM on leukotriene B4 receptors and 30 nM in experiment [1] (Cavia porcellus).
Regarding `CCC(CCCCOc1cc(-c2ccccc2)cc(-c2ccccc2)n1)C(=O)O` (centres unmarked) [2-ethyl-6-[(4,6-diphenyl-2-pyridyl)oxy]hexanoic acid], the IC50 on leukotriene B4 receptors was found to be 3 nM; in experiment [1] (Cavia porcellus), 70 nM.
Take `CC(CCCCOc1cc(-c2ccccc2)cc(-c2ccccc2)n1)C(=O)O` (centres unmarked) [2-methyl-6-[(4,6-diphenyl-2-pyridyl)oxy]hexanoic acid]: the IC50 at leukotriene B4 receptors is 4 nM; in experiment [1] (Cavia porcellus), 10 nM.
The corresponding values for `CC(CCCCOc1cc(-c2ccc3c(c2)OCO3)cc(-c2ccccc2)n1)C(=O)O` (centres unmarked) [2-methyl-6-{[4-(3,4-methylenedioxyphenyl)-6-phenyl-2-pyridyl]oxy}hexanoic acid] are 7 nM and 2.5 nM.
Take `CC(CCCCOc1cc(-c2ccc(F)cc2)cc(-c2ccccc2)n1)C(=O)O` (centres unmarked) [2-methyl-6-{[4-(4-fluorophenyl)-6-phenyl-2-pyridyl]oxy}hexanoic acid]: the IC50 came to 1.7 nM at leukotriene B4 receptors and 60 nM in experiment [1] (Cavia porcellus).
As to `CC(CCCCOc1cc(-c2ccccc2)cc(-c2ccccc2F)n1)C(=O)O` (centres unmarked) [2-methyl-6-{[6-(2-fluorophenyl)-4-phenyl-2-pyridyl]oxy}hexanoic acid], the IC50 at leukotriene B4 receptors is 4 nM; in experiment [1] (Cavia porcellus), 6 nM.
In the case of `O=C(O)c1ccc(COc2cc(-c3ccccc3)cc(-c3ccccc3)n2)cc1` [4-[(4,6-diphenyl-2-pyridyl)oxymethyl]benzoic acid], the values for the 50% inhibitory concentration (IC50) (at leukotriene B4 receptors; in experiment [1] (Cavia porcellus)) were 350 nM and 10000 nM, respectively.
For `O=C(O)CCCCOc1cc(-c2ccccc2)cc(-c2ccccc2)n1` [5-[(4,6-diphenyl-2-pyridyl)oxy]pentanoic acid], in that order: 50 nM and 2000 nM.
Consider `CC(C)(CCCCOc1cc(-c2ccccc2)cc(-c2ccccc2)n1)c1nnn[nH]1` [5-{1,1-dimethyl-5-[(4,6-diphenyl-2-pyridyl)oxy]pentyl}-[1H]-tetrazole], for which the IC50 at leukotriene B4 receptors was 7 nM; in experiment [1] (Cavia porcellus) it was 20 nM.
For `NC(=O)CCCCCOc1cc(-c2ccccc2)cc(-c2ccccc2)n1` [6-[(4,6-diphenyl-2-pyridyl)oxy]hexanamide], in that order: 160 nM and more than 1000 nM.
As to `O=C(O)CCCCCOc1cc(-c2ccccc2)cc(-c2ccccc2)n1` [6-[(4,6-diphenyl-2-pyridyl)oxy]hexanoic acid], the figures for the IC50 (at leukotriene B4 receptors; in experiment [1] (Cavia porcellus)) were 3 nM and 300 nM, respectively.
With `CC(C)(CCCCOc1nc(-c2ccccc2)cc(-c2ccccc2)n1)C(=O)O` [6-[(4,6-diphenyl-2-pyrimidyl)oxy]-2,2-dimethylhexanoic acid], the results for the IC50 (at leukotriene B4 receptors; in experiment [1] (Cavia porcellus)) were 10 nM and 1000 nM, respectively.
As for `CC(C)(CCCCOc1cc(-c2ccccc2)ccn1)C(=O)O` [6-[(4-phenyl-2-pyridyl)oxy]-2,2-dimethylhexanoic acid], the 50% inhibitory concentration (IC50) is 40 nM on leukotriene B4 receptors and 3000 nM in experiment [1] (Cavia porcellus).
For `CC(C)(CCCCOc1cc(-c2ccccc2)cc(C(C)(C)C)n1)C(=O)O` [6-[(6-ter-butyl-4-phenyl-2-pyridyl)oxy]-2,2-dimethylhexanoic acid], in that order: 40 nM and 1000 nM.
For `CC(C)(C)c1cc(-c2ccccc2)cc(OCCCCCC(=O)O)n1` [6-[(6-ter-butyl-5-phenyl-2-pyridyl)oxy]hexanoic acid], in that order: 300 nM and 2000 nM.
In the case of `O=C(O)CCCCCOc1cc(-c2ccc3c(c2)OCO3)cc(-c2ccccc2)n1` [6-{[4-(3,4-methylenedioxyphenyl)-6-phenyl-2-pyridyl]oxy}hexanoic acid], the values for the IC50 (at leukotriene B4 receptors; in experiment [1] (Cavia porcellus)) were 1 nM and 5 nM, respectively.
As to `O=C(O)CCCCCOc1cc(-c2cccc(F)c2)cc(-c2ccccc2)n1` [6-{[4-(3-fluorophenyl)-6-phenyl-2-pyridyl]oxy}hexanoic acid], the IC50 at leukotriene B4 receptors came to 3 nM; in experiment [1] (Cavia porcellus), 200 nM.
As to `COc1cccc(-c2cc(OCCCCCC(=O)O)nc(-c3ccccc3)c2)c1` [6-{[4-(3-methoxyphenyl)-6-phenyl-2-pyridyl]oxy}hexanoic acid], the results for the IC50 (on leukotriene B4 receptors; in experiment [1] (Cavia porcellus)) were 8 nM and 200 nM, respectively.
Regarding `O=C(O)CCCCCOc1cc(-c2ccc(Cl)cc2)cc(-c2ccccc2)n1` [6-{[4-(4-chlorophenyl)-6-phenyl-2-pyridyl]oxy}hexanoic acid], the values for the IC50 (on leukotriene B4 receptors; in experiment [1] (Cavia porcellus)) were 10 nM and 100 nM, respectively.
Take `O=C(O)CCCCCOc1cc(-c2ccc(F)cc2)cc(-c2ccccc2F)n1` [6-{[4-(4-fluorophenyl)-6-(2-fluorophenyl)-2-pyridyl]oxy}hexanoic acid]: the IC50 came out at 10 nM on leukotriene B4 receptors and 1000 nM in experiment [1] (Cavia porcellus).
For `O=C(O)CCCCCOc1cc(-c2ccc(F)cc2)cc(-c2ccccc2)n1` [6-{[4-(4-fluorophenyl)-6-phenyl-2-pyridyl]oxy}hexanoic acid], in that order: 3 nM and 800 nM.
Take `COc1ccc(-c2cc(OCCCCCC(=O)O)nc(-c3ccccc3)c2)cc1` [6-{[4-(4-methoxyphenyl)-6-phenyl-2-pyridyl]oxy}hexanoic acid]: the concentration for half-maximal inhibition (IC50) on leukotriene B4 receptors was found to be 15 nM; in experiment [1] (Cavia porcellus), 1100 nM.
Regarding `Cc1ccc(-c2cc(OCCCCCC(=O)O)nc(-c3ccccc3)c2)cc1` [6-{[4-(4-methylphenyl)-6-phenyl-2-pyridyl]oxy}hexanoic acid], the results for the IC50 (on leukotriene B4 receptors; in experiment [1] (Cavia porcellus)) were 15 nM and 100 nM, respectively.
The corresponding values for `CSc1ccc(-c2cc(OCCCCCC(=O)O)nc(-c3ccccc3)c2)cc1` [6-{[4-(4-methylthiophenyl)-6-phenyl-2-pyridyl]oxy}hexanoic acid] are 10 nM and 3000 nM.
As to `O=C(O)CCCCCOc1cc(-c2ccccc2)cc(-c2cccs2)n1` [6-{[4-phenyl-6-(2-thienyl)-2-pyridyl]oxy}hexanoic acid], the IC50 at leukotriene B4 receptors turned out to be 50 nM; in experiment [1] (Cavia porcellus), 300 nM.
Take `O=C(O)CCCCCOc1cc(-c2ccccc2)cc(-c2ccsc2)n1` [6-{[4-phenyl-6-(3-thienyl)-2-pyridyl]oxy}hexanoic acid]: the IC50 at leukotriene B4 receptors was determined as 10 nM; in experiment [1] (Cavia porcellus) it was 1000 nM.
For the molecule `O=C(O)CCCCCOc1cc(-c2ccccc2)cc(-c2ccccc2F)n1` [6-{[6-(2-fluorophenyl)-4-phenyl-2-pyridyl]oxy}hexanoic acid], the figures for the IC50 (on leukotriene B4 receptors; in experiment [1] (Cavia porcellus)) were 3 nM and 60 nM, respectively.
The corresponding values for `O=C(O)CCCCCOc1cc(-c2ccccc2)cc(-c2cccc(F)c2)n1` [6-{[6-(3-fluorophenyl)-4-phenyl-2-pyridyl]oxy}hexanoic acid] are 4 nM and 150 nM.
Take `COc1ccc(-c2cc(OCCCCCC(=O)O)nc(-c3ccc(Cl)cc3)c2)cc1` [6-{[6-(4-chlorophenyl)-4-(4-methoxyphenyl)-2-pyridyl]oxy}hexanoic acid]: the IC50 at leukotriene B4 receptors was 1200 nM; in experiment [1] (Cavia porcellus), more than 10000 nM.
For the molecule `O=C(O)CCCCCOc1cc(-c2ccccc2)cc(-c2ccc(F)cc2)n1` [6-{[6-(4-fluorophenyl)-4-phenyl-2-pyridyl]oxy}hexanoic acid], the concentration for half-maximal inhibition (IC50) turned out to be 30 nM on leukotriene B4 receptors and 1700 nM in experiment [1] (Cavia porcellus).
In the case of `O=C(O)CCCCCCOc1cc(-c2ccccc2)cc(-c2ccccc2)n1` [7-[(4,6-diphenyl-2-pyridyl)oxy]heptanoic acid], the IC50 on leukotriene B4 receptors amounted to 25 nM; in experiment [1] (Cavia porcellus), 1300 nM.
